The record followed here is patent US20240344035A1, “Culture Medium and Culture Method for Human Primary Acute Myeloid Leukemia Cells” (PRECEDO PHARMACEUTICALS CO., LTD, priority 2021, published 2024).

Holding throughout (assay type): cell-based
Assay [1] has as its system human primary acute myeloid leukemia cells. The assay is described as follows: Effect of single added factors in Basal Medium on proliferation (CCK-8). The following applies: additive at the listed final concentration in Basal Medium; samples A17007, A25104; 5 to 8 days; CCK-8, 450 nm; versus Basal Medium. As to the method: First, the Basal Medium was prepared. The formulation of the Basal Medium was monocyte serum-free medium (purchased from BI, 05-080-1A)+10% (v/v) fetal bovine serum (purchased from ExCell Bio, FND500)+100 μg/mL Primocin (purchased from InvivoGen, 0.2% (v/v), the commercial product concentration is 50 mg/mL).
Different types of growth factors (see Table 1) were added to the Basal Medium to prepare culture mediums for human primary acute myeloid leukemia cells containing different added components.
The culture mediums of different compositions in Table 1 were added into a 96-well plate in a volume of 100 μL/well. Human primary acute myeloid leukemia cells isolated from two cases of human primary acute myeloid leukemia bone marrow samples (numbered A17007, A25104, from the First Affiliated Hospital of Anhui Medical University) according to the above step (2) were inoculated in the 96-well culture plate at a density of 1×10^4 cells/well and cultured at 37° C. and 5% […]. After 5 to 8 days of culture, the cells grew to 70% to 85%, and 10 μL of Cell Counting Kit-8 (CCK-8, purchased from MCE) was added to each well and incubated at 37° C. and 5% CO2 for 2 to 4 hours. The substances in each well were mixed, and the plate was read using a multifunctional microplate reader (Multi-Mode Detection Platform, American Molecular Instruments (Shanghai) Co., Ltd.) at 450 nm. The Basal Medium without addition of any additive was used as a control.

The test system is the same in assay [2]. The assay is described as follows: Effect of combinations of added factors on proliferation (viable cell counting, FIG. 1). The following applies: six bone marrow samples. As to the method: The culture mediums for human primary acute myeloid leukemia cells containing different combinations of added factors were prepared according to the components in Table 2, to investigate the proliferation-promoting effects of different added factor combinations on human primary acute myeloid leukemia cells.
Human primary acute myeloid leukemia cells were obtained from human primary acute myeloid leukemia bone marrow samples (numbered A17151, A17152, A20090, A20101, A21004, A20141) according to the process of step (2)-3 of Example 1. The obtained cell suspension was divided into 11 equal parts, which were then centrifuged at 1500 rpm for 4 minutes. After centrifugation, the cells were resuspended with 200 μL BM or No. 1 to 10 culture medium, respectively, and inoculated into a 48-well plate at a viable cell density of 2×10^4 cells/well (20,000 cells per well). Each well in the 48-well plate was supplemented to a volume of 1 mL with the corresponding culture mediums, and the resultant was fully mixed. After surface disinfection, the plate was placed in a 37° C., 5% CO2 incubator (purchased from Thermo Fisher) for culture.
The cells in the 48-well plate grew to more than 85% and were transferred to a 15 mL centrifuge tube which was then centrifuged at 1500 rpm for 5 minutes. 500 μL of monocyte serum-free medium was added to the centrifuge tube to resuspend the cell pellet. 12 μL of the resuspended cell suspension was fully mixed with 12 μL of trypan blue dye (Sangon Biotech (Shanghai) Co., Ltd.), and then 20 μL of the mixture was added into a cell counting plate (Countstar, specifications: 50 pieces/box). The percentage of viable large cells (cell size>10 μm) were calculated using a cell counter (Countstar, IC1000) (percentage of viable large cells (cell size>10 μm)=number of viable cells/total number of cells*100%). The results obtained from human primary acute myeloid leukemia cells of bone marrow samples A17151, A17152, A20090, A20101, A21004, and A20141 are shown in FIG. 1.

The test system is the same in assay [3]. Briefly: Proliferative effects of different concentrations of added factors (ratio to Blank Control, FIGS. 2A-2H). As to conditions: for concentration at which the cell proliferation effect is most significant: five concentrations tested; for proliferation-promoting effect of the factor: samples A23065, A17112, factor added back to formulation lacking it. The method, then: Human primary acute myeloid leukemia cells were obtained from human primary acute myeloid leukemia bone marrow samples (numbered A23065, A17112) according to the process of step (2)-3 of Example 1. The cells were resuspended with Basal Medium (monocyte serum-free medium+10% (v/v) fetal bovine serum+100 μg/mL Primocin) for later use.
20 μl of cell suspension containing 4×10^4 cells was added to each well, and the suspension was diluted with 1 mL medium of the above Formulations 1-8, respectively.
When using the culture medium of Formulation 1, the prepared glutamine additive was added respectively to a 48-well plate inoculated with primary cells, with 1 mL per well, and the final concentration of glutamine additive was 0.5 mM, 1 mM, 2 mM, 4 mM, 8 mM, respectively; a well of Blank Control (BC) was set using the culture medium of Formulation 1.
When using the culture medium of Formulation 2, the prepared human SCF was added respectively to a 48-well plate inoculated with primary cells, with 1 mL per well, and the final concentration of human SCF was 1 ng/mL, 3 ng/mL, 9 ng/mL, 27 ng/mL, 81 ng/mL, respectively; a well of Blank Control (BC) was set using the culture medium of Formulation 2.
When using the culture medium of Formulation 5, the prepared human FLT3L was added respectively to a 48-well plate inoculated with primary cells, with 1 mL per well, and the final concentration of human FLT3L was 1 ng/mL, 3 ng/mL, 9 ng/mL, 27 ng/mL, 81 ng/mL, respectively; a well of Blank Control (BC) was set using the culture medium of Formulation 5.
When using the culture medium of Formulation 6, the prepared non-essential amino acids were added respectively to a 48-well plate inoculated with primary cells, with 1 mL per well, and the final concentration of non-essential amino acids was 12.5 µM, 25 µM, 50 µM, 100 µM, 200 µM, respectively; a well of Blank Control (BC) was set using the culture medium of Formulation 6.
When using the culture medium of Formulation 8, the prepared human M-CSF was added respectively to a 48-well plate inoculated with primary cells, with 1 mL per well, and the final concentration of human M-CSF was 1 ng/mL, 3 ng/mL, 9 ng/mL, 27 ng/mL, 81 ng/mL, respectively; a well of Blank Control (BC) was set using the culture medium of Formulation 8.
In FIGS. 2A to 2H, the ratio is a ratio of the number of cells of the first passage cultured by using each culture medium to the number of cells of the first passage cultured in the corresponding well of Blank Control.

Consider `C[C@@H](N)[C@H]1CC[C@H](C(=O)Nc2ccncc2)CC1` [Y-27632, reference compound], for which the “Level of promoting cell proliferation” value in assay [1] is “−”.

As to human interleukin-5 [human IL-5], the “Level of promoting cell proliferation” value in assay [1] is on record as “−”.

Consider human interleukin-6 [human IL-6], for which the “Level of promoting cell proliferation” value in assay [1] was “+”. In assay [2], the “proliferation-promoting effect of the factor (omission from No. 1 medium)” value is listed as “significantly promote the proliferation”. In assay [3], the “concentration at which the cell proliferation effect is most significant” value turned out to be 5.67 ng/mL and the “proliferation-promoting effect of the factor” value is “significant proliferation-promoting effect”.

Consider human interleukin-7 [human IL-7], for which the “Level of promoting cell proliferation” value in assay [1] is on record as “+”. In addition, the “proliferation-promoting effect of the factor (omission from No. 1 medium)” value in assay [2] is reported as “significantly promote the proliferation”. In assay [3], the “concentration at which the cell proliferation effect is most significant” value was found to be 17 ng/mL and the “proliferation-promoting effect of the factor” value was “significant proliferation-promoting effect”.

“human leukocyte interferon [human IFN-α]”: the “Level of promoting cell proliferation” value in assay [1] is on record as “+”.

Regarding human stem cell factor [human SCF], the “Level of promoting cell proliferation” value in assay [1] was “+”. Further, in assay [2], the “proliferation-promoting effect of the factor (omission from No. 1 medium)” value was “significantly promote the proliferation”. Besides, in assay [3], the “concentration at which the cell proliferation effect is most significant” value is listed as 9 ng/mL and the “proliferation-promoting effect of the factor” value is reported as “significant proliferation-promoting effect”.

Regarding human thrombopoietin [human TPO], the “Level of promoting cell proliferation” value in assay [1] is on record as “−”.

B1: human granulocyte colony stimulating factor (protein, UniProt P09919 31-207, looked up)
Granulocyte …: TPLGPASSLPQSFLLKCLEQVRKIQGDGAALQEKLVSECATYKLCHPEELVLLGHSLGIPWAPLSSCPSQALQLAGCLSQLHSGLFLYQGLLQALEGISPELGPTLDTLQLDVADFATTIWQQMEELGMAPALQPTQGAMPAFASAFQRRAGGVLVASHLQSFLEVSYRVLRHLAQP
notes: growth factor additive from Sino Biological
With B1, in assay [1], the “Level of promoting cell proliferation” value was “−”.

B2: human interleukin-4 (protein, UniProt P05112 25-153, looked up)
Interleukin-4: HKCDITLQEIIKTLNSLTEQKTLCTELTVTDIFAASKNTTEKETFCRAATVLRQFYSHHEKDTRCLGATAQQFHRHKQLIRFLKRLDRNLWGLAGLNSCPVKEANQSTLENFLERLKTIMREKYSKCSS
notes: cytokine additive from Sino Biological
For the molecule B2, the “Level of promoting cell proliferation” value in assay [1] was “−”.

B3: human interleukin-22 (protein, UniProt Q9GZX6 34-179, looked up)
Interleukin-22: APISSHCRLDKSNFQQPYITNRTFMLAKEASLADNNTDVRLIGEKLFHGVSMSERCYLMKQVLNFTLEEVLFPQSDRFQPYMQEVVPFLARLSNRLSTCHIEGDDLHIQRNVQKLKDTVKKLGESGEIKAIGELDLLFMSLRNACI
notes: cytokine additive from Peprotech
Take B3: the “Level of promoting cell proliferation” value in assay [1] is reported as “−”.

B4: human interleukin-11 (protein, UniProt P20809 22-199, looked up)
Interleukin-11: PGPPPGPPRVSPDPRAELDSTVLLTRSLLADTRQLAAQLRDKFPADGDHNLDSLPTLAMSAGALGALQLPGVLTRLRADLLSYLRHVQWLRRAGGSSLKTLEPELGTLQARLDRLLRRLQLLMSRLALPQPPPDPPAPPLAPPSSAWGGIRAAHAILGGLHLTLDWAVRGLLLLKTRL
notes: as for B2
Turning to B4, in assay [1], the “Level of promoting cell proliferation” value was “−”.

B5: recombinant human macrophage colony-stimulating factor (protein, UniProt P09603 33-554, looked up)
Macrophage colony-stimulating …: EEVSEYCSHMIGSGHLQSLQRLIDSQMETSCQITFEFVDQEQLKDPVCYLKKAFLLVQDIMEDTMRFRDNTPNAIAIVQLQELSLRLKSCFTKDYEEHDKACVRTFYETPLQLLEKVKNVFNETKNLLDKDWNIFSKNCNNSFAECSSQDVVTKPDCNCLYPKAIPSSDPASVSPHQPLAPSMAPVAGLTWEDSEGTEGSSLLPGEQPLHTVDPGSAKQRPPRSTCQSFEPPETPVVKDSTIGGSPQPRPSVGAFNPGMEDILDSAMGTNWVPEEASGEASEIPVPQGTELSPSRPGGGSMQTEPARPSNFLSASSPLPASAKGQQPADVTGTALPRVGPVRPTGQDWNHTPQKTDHPSALLRDPPEPGSPRISSLRPQGLSNPSTLSAQPQLSRSHSSGSVLPLGELEGRRSTRDRRSPAEPEGGPASEGAARPLPRFNSVPLTDTGHERQSEGSFSPQLQESVFHLLVPSVILVLLAVGGLLFYRWRRRSHQEPQRADSPLEQPEGSPLTQDDRQVELPV
notes: as for B1
In the case of B5, the “Level of promoting cell proliferation” value in assay [1] is reported as “+”. Further, the “proliferation-promoting effect of the factor (omission from No. 1 medium)” value in assay [2] is on record as “significantly promote the proliferation”. In assay [3], the “concentration at which the cell proliferation effect is most significant” value is reported as 27 ng/mL and the “proliferation-promoting effect of the factor” value is on record as “significant proliferation-promoting effect”.

B6: human interleukin-10 (protein, UniProt P22301 19-178, looked up)
Interleukin-10: SPGQGTQSENSCTHFPGNLPNMLRDLRDAFSRVKTFFQMKDQLDNLLLKESLLEDFKGYLGCQALSEMIQFYLEEVMPQAENQDPDIKAHVNSLGENLKTLRLRLRRCHRFLPCENKSKAVEQVKNAFNKLQEKGIYKAMSEFDIFINYIEAYMTMKIRN
notes: as for B2
On to B6, for which, in assay [1], the “Level of promoting cell proliferation” value was “−”.

B7: recombinant human FLT3 Ligand (protein, UniProt P49771 27-235, looked up)
Fms-related tyrosine kinase 3 …: TQDCSFQHSPISSDFAVKIRELSDYLLQDYPVTVASNLQDEELCGGLWRLVLAQRWMERLKTVAGSKMQGLLERVNTEIHFVTKCAFQPPPSCLRFVQTNISRLLQETSEQLVALKPWITRQNFSRCLELQCQPDSSTLPPPWSPRPLEATAPTAPQPPLLLLLLLPVGLLLLAAAWCLHWQRTRRRTPRPGEQVPPVPSPQDLLLVEH
notes: as for B1
For the molecule B7, the “Level of promoting cell proliferation” value in assay [1] was “+”. Moreover, the “proliferation-promoting effect of the factor (omission from No. 1 medium)” value in assay [2] was “significantly promote the proliferation”. Also, in assay [3], the “concentration at which the cell proliferation effect is most significant” value amounted to 27 ng/mL and the “proliferation-promoting effect of the factor” value is reported as “significant proliferation-promoting effect”.
